Several values for one entry are separate records, joined by “and”; a condition that tells them apart may be missing. Identical values can stand only once. Entries after “also recorded” stand apart in the source; their conditions may differ.
Legend:
Type in all cases: cell-based
H-9 cells = assay: Cytoxicity on H-9 cells (drug inhibition, cell count); conditions: for H-9 Mean (drug inhibition): Table 4 summary; for % Inhibition Mean / Cells (×10^4) Mean / % Inhibition / Cells (×10^4): Exp. Dec. 05 to Dec. 09, 2005; for % Inhibition / Cells (×10^4): single replicates
Description: (§1) The purified and identified analogs were subjected to in vitro biological testing. […] These three congeners were further evaluated in H9 and PC3 cells. AZT was employed as a positive control in all of these experiments.

MCF-7 cells = assay: Cytoxicity on MCF-7 cells (drug inhibition, cell count); parameters: Drug Inhibition on MCF-7 Cells / MCF-7 Mean (drug inhibition) / Drug inhibition on MCF-7 Cells Mean: unit not given here; conditions: MCF-7 cells; for Drug Inhibition on MCF-7 Cells: Table 8 summary
Description: as §1

PC-3 cells = assay: Cytoxicity on PC-3 cells (drug inhibition, cell count); conditions: for Drug Inhibition on PC-3 cells: Table 7; for % Inhibition Mean / Cells (×10^4) Mean / % Inhibition / Cells (×10^4): Exp. Nov. 11 to Nov. 17, 2005; for % Inhibition / Cells (×10^4): single replicates
Description: The purified and identified analogs were subjected to in vitro biological testing.

[1] = 1 μg/ml, mean, Exp. Nov. 14 to Nov. 18, 2005
[2] = 1 μg/ml, single replicates, Exp. Nov. 14 to Nov. 18, 2005
[3] = 5 μg/ml, mean, Exp. Nov. 14 to Nov. 18, 2005
[4] = 5 μg/ml, single replicates, Exp. Nov. 14 to Nov. 18, 2005
[5] = 10 μg/ml, mean, Exp. Nov. 14 to Nov. 18, 2005
[6] = 10 μg/ml, single replicates, Exp. Nov. 14 to Nov. 18, 2005
[7] = 50 μg/ml, mean, Exp. Nov. 14 to Nov. 18, 2005
[8] = 50 μg/ml, single replicates, Exp. Nov. 14 to Nov. 18, 2005

## COc1ccc(C=CC(=O)c2cc(Br)cc(Br)c2O)cc1OC [CHBr 2M]
H-9 cells; 1 μg/ml
  H-9 Mean (drug inhibition): 5.64
  % Inhibition Mean: 5.64%
  Cells (×10^4) Mean: 47.42 ×10^4
  % Inhibition: 9.45% and 1.49% and 5.97%
  Cells (×10^4): 45.5 ×10^4 and 49.5 ×10^4 and 47.3 ×10^4
H-9 cells; 5 μg/ml
  H-9 Mean (drug inhibition): 49.59
  % Inhibition Mean: 49.59%
  Cells (×10^4) Mean: 25.33 ×10^4
  % Inhibition: 49.25% and 50.76% and 48.76%
  Cells (×10^4): 25.5 ×10^4 and 24.8 ×10^4 and 25.8 ×10^4
H-9 cells; 10 μg/ml
  H-9 Mean (drug inhibition): 65.01
  % Inhibition Mean: 65.01%
  Cells (×10^4) Mean: 17.58 ×10^4
  % Inhibition: 63.68% and 67.66% and 63.88%
  Cells (×10^4): 18.3 ×10^4 (2×) and 16.3 ×10^4
H-9 cells; 50 μg/ml
  H-9 Mean (drug inhibition): 76.95
  % Inhibition Mean: 76.95%
  Cells (×10^4) Mean: 11.58 ×10^4
  % Inhibition: 76.62% and 77.11%
  Cells (×10^4): 11.8 ×10^4 and 11.5 ×10^4 (2×)
H-9 cells; same conditions as AZT
  inhibitory activity compared to AZT: much superior inhibitory activities; also recorded: as good or somewhat better
MCF-7 cells
  response to MCF-7 cells in the different drug concentrations: good activities
MCF-7 cells; 1 μg/ml
  Drug Inhibition on MCF-7 Cells: 15.13
MCF-7 cells; [1]
  % Inhibition Mean: 15.13%
  Cells (×10^4) Mean: 49.08 ×10^4
MCF-7 cells; [2]
  % Inhibition: 15.71% and 10.95% and 18.73%
  Cells (×10^4): 48.6 ×10^4 and 51.5 ×10^4 and 47.0 ×10^4
MCF-7 cells; 5 μg/ml
  Drug Inhibition on MCF-7 Cells: 54.61
MCF-7 cells; [3]
  % Inhibition Mean: 54.61%
  Cells (×10^4) Mean: 26.25 ×10^4
MCF-7 cells; [4]
  % Inhibition: 53.31% and 56.34% and 54.18%
  Cells (×10^4): 27.0 ×10^4 and 25.3 ×10^4 and 26.5 ×10^4
MCF-7 cells; 10 μg/ml
  Drug Inhibition on MCF-7 Cells: 86.31
MCF-7 cells; [5]
  % Inhibition Mean: 86.31%
  Cells (×10^4) Mean: 7.92 ×10^4
MCF-7 cells; [6]
  % Inhibition: 87.46% and 84.44% and 87.03%
  Cells (×10^4): 7.3 ×10^4 and 9.0 ×10^4 and 7.5 ×10^4
MCF-7 cells; 50 μg/ml
  Drug Inhibition on MCF-7 Cells: 98.709
MCF-7 cells; [7]
  % Inhibition Mean: 98.70%
  Cells (×10^4) Mean: 0.75 ×10^4
MCF-7 cells; [8]
  % Inhibition: 98.70% and 98.27% and 99.14%
  Cells (×10^4): 0.8 ×10^4 and 1.0 ×10^4 and 0.5 ×10^4
MCF-7 cells; same conditions as AZT
  inhibitory activity compared to AZT: much superior inhibitory activities; also recorded: as good or somewhat better
PC-3 cells; 1 μg/ml
  Drug Inhibition on PC-3 cells: 47.1
  % Inhibition Mean: 27.64%
  Cells (×10^4) Mean: 70.92 ×10^4
  % Inhibition: 25.26% and 26.53% and 31.12%
  Cells (×10^4): 73.3 ×10^4 and 72.0 ×10^4 and 67.5 ×10^4
PC-3 cells; 5 μg/ml
  Drug Inhibition on PC-3 cells: 65.88
  % Inhibition Mean: 27.72%
  Cells (×10^4) Mean: 70.83 ×10^4
  Cells (×10^4): 75.5 ×10^4 and 68.0 ×10^4 and 69.0 ×10^4
PC-3 cells; 10 μg/ml
  Drug Inhibition on PC-3 cells: 78.04
  % Inhibition Mean: 26.28%
  Cells (×10^4) Mean: 72.25 ×10^4
PC-3 cells; 50 μg/ml
  Drug Inhibition on PC-3 cells: 89.50
  % Inhibition Mean: 42.86%
  Cells (×10^4) Mean: 56.00 ×10^4
  % Inhibition: 41.33% and 45.92%
  Cells (×10^4): 57.5 ×10^4 (2×) and 53.0 ×10^4
PC-3 cells; same conditions as AZT
  inhibitory activity compared to AZT: much superior inhibitory activities; also recorded: as good or somewhat better

## COc1cc(C=CC(=O)c2cc(Cl)cc(Cl)c2O)cc(OC)c1OC [CHCl 3M]
MCF-7 cells; drug 1 μg/ml, mean of replicates
  Cells (×10^4) Mean: 53.17 ×10^4
MCF-7 cells; drug 1 μg/ml, mean of replicates, vs 2% DMSO
  % Inhibition Mean: −4.42%
MCF-7 cells; drug 1 μg/ml, single replicate count
  Cells (×10^4): 54.0 ×10^4 and 54.3 ×10^4 and 51.3 ×10^4
MCF-7 cells; drug 1 μg/ml, single replicate, vs 2% DMSO
  % Inhibition: −6.06% and −6.55% and −0.65%
MCF-7 cells; drug 5 μg/ml, mean of replicates
  Cells (×10^4) Mean: 52.75 ×10^4
MCF-7 cells; drug 5 μg/ml, mean of replicates, vs 2% DMSO
  % Inhibition Mean: −3.6%
MCF-7 cells; drug 5 μg/ml, single replicate count
  Cells (×10^4): 53.8 ×10^4 and 51.5 ×10^4 and 50.0 ×10^4
MCF-7 cells; drug 5 μg/ml, single replicate, vs 2% DMSO
  % Inhibition: −5.56% and −1.15% and −4.09%
MCF-7 cells; drug 10 μg/ml, mean of replicates
  Cells (×10^4) Mean: 43.75 ×10^4
MCF-7 cells; drug 10 μg/ml, mean of replicates, vs 2% DMSO
  % Inhibition Mean: 14.08%
MCF-7 cells; drug 10 μg/ml, single replicate count
  Cells (×10^4): 42.5 ×10^4 and 43.3 ×10^4 and 45.5 ×10^4
MCF-7 cells; drug 10 μg/ml, single replicate, vs 2% DMSO
  % Inhibition: 16.53% and 15.06% and 10.64%
MCF-7 cells; drug 50 μg/ml, mean of replicates
  Cells (×10^4) Mean: 31.50 ×10^4
MCF-7 cells; drug 50 μg/ml, mean of replicates, vs 2% DMSO
  % Inhibition Mean: 38.13%
MCF-7 cells; drug 50 μg/ml, single replicate count
  Cells (×10^4): 32.0 ×10^4 and 32.8 ×10^4 and 29.8 ×10^4
MCF-7 cells; drug 50 μg/ml, single replicate, vs 2% DMSO
  % Inhibition: 37.15% and 35.68% and 41.57%

Reference: US8314143B2, “Synthetic flavonoids and pharmaceutical compositions and therapeutic methods of treatment of HIV infection and other pathologies” (Florida A&M University, priority 2006, dated 2012)
